Source: the NIST ThermoML archive (doi:10.1021/acs.jced.8b01204)
Numbers after ± are expanded uncertainties.

Assay: xn = mol fraction of the nth substance listed
Details: 101 kPa, Liquid; for speed of sound: Single path-length method; for mass density: Vibrating tube method

C[N+]1(CC2CO2)CCCC1=O.O=C([O-])c1ccccc1O (stereo not given) [1-methyl-1-(oxiran-2-ylmethyl)-2-oxopyrrolidinium salicylate] + CCC(=O)O
Details	mass density, 293.15 K [kg/m3]	mass density, 298.15 K [kg/m3]	mass density, 303.15 K [kg/m3]	mass density, 308.15 K [kg/m3]	mass density, 313.15 K [kg/m3]	speed of sound, 293.15 K [m/s]	speed of sound, 298.15 K [m/s]	speed of sound, 303.15 K [m/s]	speed of sound, 308.15 K [m/s]	speed of sound, 313.15 K [m/s]
x1 = 0.0303	1018.7 ± 3	1013.6 ± 3	1008.2 ± 3	1003.2 ± 3	998 ± 3	1211.9 ± 6.1	1193.4 ± 6.1	1175 ± 6.1	1156.8 ± 6.1	1138.9 ± 6.1
x1 = 0.0701	1046.2 ± 3	1041.2 ± 3	1036.2 ± 3	1031.3 ± 3	1026.3 ± 3	1266.7 ± 6.1	1248.7 ± 6.1	1230.8 ± 6.1	1213.2 ± 6.1	1195.8 ± 6.1
x1 = 0.1006	1063.4 ± 3	1058.6 ± 3	1053.7 ± 3	1048.9 ± 3	1044 ± 3	1303.5 ± 6.1	1286 ± 6.1	1268.5 ± 6.1	1251.1 ± 6.1	1233.7 ± 6.1
x1 = 0.2	1105.7 ± 3	1101.9 ± 3	1096.5 ± 3	1091.8 ± 3	1087.2 ± 3	1400.3 ± 6.1	1383.3 ± 6.1	1366.1 ± 6.1	1349.2 ± 6.1	1332.5 ± 6.2
x1 = 0.3007	1133.9 ± 3	1129.4 ± 3	1124.9 ± 3	1120.4 ± 3	1115.9 ± 3	1465.8 ± 6.1	1449 ± 6.2	1432 ± 6.2	1415.3 ± 6.2	1398.7 ± 6.2
x1 = 0.4009	1153.6 ± 3.1	1149.2 ± 3.1	1144.8 ± 3.1	1140.3 ± 3.1	1135.9 ± 3	1505.7 ± 6.2	1488.9 ± 6.2	1472 ± 6.2	1455.4 ± 6.2	1439 ± 6.2
x1 = 0.501	1168.6 ± 3.1	1164.2 ± 3.1	1159.8 ± 3.1	1155.4 ± 3.1	1151 ± 3.1	1538.8 ± 6.2	1521.9 ± 6.2	1505 ± 6.2	1488.4 ± 6.2	1472 ± 6.2
x1 = 0.6002	1180.6 ± 3.1	1176.3 ± 3.1	1172 ± 3.1	1167.6 ± 3.1	1163.3 ± 3.1	1565.4 ± 6.2	1547.8 ± 6.2	1530.9 ± 6.2	1514.3 ± 6.2	1497.9 ± 6.2
x1 = 0.7002	1190.5 ± 3.1	1186.2 ± 3.1	1181.9 ± 3.1	1177.6 ± 3.1	1173.3 ± 3.1	1584.5 ± 6.2	1566.8 ± 6.2	1549.5 ± 6.2	1532.7 ± 6.2	1516.3 ± 6.2
x1 = 0.8005	1198.3 ± 3.1	1194.1 ± 3.1	1189.8 ± 3.1	1185.5 ± 3.1	1181.2 ± 3.1	1599.7 ± 6.3	1581.7 ± 6.3	1564.2 ± 6.3	1547.3 ± 6.3	1530.8 ± 6.3
x1 = 0.901	1204.6 ± 3.2	1200.4 ± 3.2	1196.1 ± 3.2	1191.8 ± 3.2	1187.5 ± 3.2	1615.4 ± 6.3	1596.4 ± 6.3	1578.6 ± 6.3	1561.5 ± 6.3	1544.9 ± 6.3
x1 = 1	1209.8 ± 3.2	1205.5 ± 3.2	1201.3 ± 3.2	1197.2 ± 3.2	1193 ± 3.2	1634.2 ± 6.3	1614.5 ± 6.3	1595.7 ± 6.3	1577.6 ± 6.3	1559.5 ± 6.3
